Tested on: rabbit aorta rings
Experiment: Vasorelaxant effect in vitro (phenylephrine-contracted rabbit aorta rings)
Conditions: Oryctolagus cuniculus; concentration reducing height of phenylephrine-induced contraction of rabbit aorta rings by 50%; 0.1% DMSO
Experimental: Rabbits are stunned by a blow to the back of the neck and are exsanguinated. The aorta is removed, freed of adherent tissue, divided into rings 1.5 mm wide and put singly under tension in 5 ml organ baths containing carbogen-gassed Krebs-Henseleit solution at 37° C. with the following composition (mM): NaCl: 119; KCl: 4.8; CaCl2×2 H2O: 1; MgSO4×7 H2O; 1.4; KH2PO4: 1.2; NaHCO3: 25; glucose: 10. The force of contraction is detected with Statham UC2 cells, amplified and digitized via A/D converters (DAS-1802 HC, Keithley Instruments Munich) and recorded in parallel on chart recorders. A contraction is generated by adding phenylephrine to the bath cumulatively in increasing concentration. After several control cycles, the substance to be investigated is investigated in each further run in increasing dosage in each case, and the height of the contraction is compared with the height of the contraction reached in the last preceding run. The concentration necessary to reduce the height of the control value by 50% (IC50) is calculated from this. The standard application volume is 5 μl, and the DMSO content in the bath solution corresponds to 0.1%.

SMILES: Nc1nc(-c2nn(Cc3ccccc3F)c3ncccc23)ncc1OS(=O)(=O)c1ccccc1 [Example 10]
- IC50: 2020 nM

SMILES: CS(=O)(=O)Oc1cnc(-c2nn(Cc3ccccc3F)c3ncccc23)nc1N [Example 2]
- IC50: 580 nM

SMILES: CCS(=O)(=O)Oc1cnc(-c2nn(Cc3ccccc3F)c3ncccc23)nc1N [Example 3]
- IC50: 300 nM

SMILES: Nc1nc(-c2nn(Cc3ccccc3F)c3ncccc23)ncc1OS(=O)(=O)CCCC(F)(F)F [Example 7]
- IC50: 440 nM

SMILES: CC(C)S(=O)(=O)Oc1cnc(-c2nn(Cc3ccccc3F)c3ncccc23)nc1N [Example 5]
- IC50: 520 nM

SMILES: Nc1nc(-c2nn(Cc3ccccc3F)c3ncccc23)ncc1OS(=O)(=O)CCl [Example 1, 4-Amino-2-[1-(2-fluorobenzyl)-1H-pyrazolo[3,4-b]pyridin-3-yl]-5-pyrimidinyl chloromethanesulfonate]
- IC50: 700 nM

SMILES: Nc1nc(-c2nn(Cc3ccccc3F)c3ncccc23)ncc1OS(=O)(=O)C1CC1 [Example 4]
- IC50: 710 nM

Reference: patent publication US6919345B2, “Sulfonate substituted pyrazol pyridine derivatives” (Bayer Aktiengesellschaft, priority 2001, dated 2005)
